# According to ChEMBL document CHEMBL2095176, “GSK Tuberculosis Screening Data”:
# What was measured:
# [1] = tested on: Mycobacterium tuberculosis H37Rv; experiment: microbe, parasite or virus in culture
# Description: GSK_TB: Intracellular minimum inhibitory concentration (MIC) H37Rv assay
# physchem [2] = conditions: phosphate buffered saline, pH 7.4
# physchem [3] = conditions: octanol/water
# Description: (§1) GSK_TB: GSK in-house hydrophobicity assay (logP)
# [4] = buffer, pH 7.4
# Description: (§2) GSK_TB: GSK in-house hydrophobicity assay at pH7.4 (logD)
# physchem [5] = conditions: buffer, pH 7.4
# Description: as §2
# [6] = octanol/water
# Description: as §1
Compound,MIC90 [1] [µM],solubility kinetic (physchem [2]) [µM],logP (physchem [3]),logD7.4 [4],logD (physchem [5]),logP [6]
CCN(CC)c1ccc(-c2nn3c(-c4n[nH]c5c4CCC5)nnc3s2)cc1,1.5,1,5.78,5.44,,
COc1ccc(CCNC(=O)c2c(C)nc3ccccn23)cc1,3.1,348,3.41,,3.39,
Cc1cccc(Cn2ccc(NC(=O)c3ccc4c(c3)OCO4)n2)c1,3.7,80,5.27,,5.07,
c1csc(Cc2nn3c(-c4n[nH]c5c4CCC5)nnc3s2)c1,2.4,196,3.48,,3.3,
Brc1c(-c2ccc3c(c2)OCO3)nc2ncccn12,4.7,219,3.48,,3.48,
O=C(c1cc2ccccc2o1)N1CCN(Cc2ccc3c(c2)OCO3)CC1,2.7,171,5.83,,5.63,
Nc1nc(N)c2c(Sc3ccc4ccccc4c3)cccc2n1,8.71,32,4.72,,4.41,
COc1cc(CN2CCC3(C=Cc4ccccc43)CC2)cc2c1OCO2,9.5,121,8.25,,7.03,
c1ccc(-c2nnc(Sc3ccnc(N4CCN(c5ccncc5)CC4)n3)n2CCCN2CCOCC2)nc1,6.38,154,3.22,,2.08,
CCOC(=O)CC[C@H](NC(=O)c1ccc(S(=O)(=O)Nc2ccc3nc(N)[nH]c(=O)c3c2)cc1)C(=O)OCC,1.5,300,2.45,,2.46,
Cl.Cl.O=C(Nc1ccc(NC2=NCCN2)cc1)c1ccc(C(=O)Nc2ccc(NC3=NCCN3)cc2)cc1,1.6,26,0.918,,0.12,
COc1ccc(-c2nsc(SCC(=O)N3CCCC3)n2)cc1,1.6,10,5.27,,4.97,
CC(C)(C)c1ccc(-c2nnc(SCC(=O)OC3CCCCC3)o2)cc1,1.74,1,,9.17,,9.65
CCCCc1ccc(C(=O)Nc2nccc3ccccc23)nc1,9.23,98,6.94,,6.65,
Nc1cc(OCc2ccccc2)ccc1Nc1ccccc1,9.44,1,6.94,,6.65,
CN(C)S(=O)(=O)c1ccc(C(=O)Nc2nnc(-c3ccc(Cl)s3)o2)cc1,5.82,177,4.69,,2.83,
O=C(C=Cc1cccs1)N1CCN(Cc2ccc3c(c2)OCO3)CC1,0.3,314,5.23,,4.97,
O=C(CCC1CCCCC1)Nc1cccc(-c2nnc(-c3ccco3)o2)c1,6.1,1,7.18,,6.84,
Cc1nc2ccccn2c1C(=O)NCc1ccccc1,2,403,3.2,,3.2,
COc1cc2ccccc2cc1C(=O)NCc1cccc(-c2ccccc2OC)c1,2.2,84,7.58,,7.21,
CCC(Sc1nc2ccccc2o1)C(=O)Nc1nccs1 (stereo unspecified),2.79,105,5.78,,5.44,
CC(C)OC(=O)COc1ccc(-c2cnc(N(C)CCc3ccncc3)nc2)cc1,6.76,182,5.93,,5.63,

Compound,MIC90 [1] [µM],solubility kinetic (physchem [2]) [µM],logP (physchem [3]),logD7.4 [4],logD (physchem [5]),logP [6]
C[C@@H](NCCc1nc(-c2cn(C)c3ccccc23)no1)C1CCCCC1.Cl,1.15,202,8.75,,6.56,
COc1cc(Cc2cnc(N)nc2N)c2cnccc2c1N(C)C,2.99,304,2.61,,2.55,
CCCc1ccc(S(=O)(=O)Nc2ccc(CN3CCN(CC4CC4)CC3)cc2)cc1.O=C(O)C(F)(F)F.O=C(O)C(F)(F)F,7.76,318,5.54,,4.69,
c1ccc(Cc2nnc(Sc3ccnc(N4CCN(c5ccncc5)CC4)n3)n2CCN2CCOCC2)cc1,7.85,186,3.12,,2.18,
CC1=Nc2ccccc2CN1CC(O)c1cc(Br)cs1 (stereo unspecified),7.85,563,4.12,,2.46,
O=C(COc1ccccc1)N1CCN(c2cnc3ccccc3n2)CC1,3.09,173,4.72,,4.69,
Cc1cc(OCC(=O)Nc2ccccc2)c2cc(Br)ccc2n1,3.3,16,5.44,,5.25,
FC(F)(F)c1cc(SCc2ccccc2)nc(-c2ccccn2)n1,3.3,1,7.54,,7.12,
COc1ccccc1OCCCCn1c(C2CC2)nc2ccccc21,3.4,167,5.83,,5.63,
O=C(C=Cc1ccco1)N1CCN(Cc2ccc3c(c2)OCO3)CC1,4.6,186,4.72,,4.51,
CCc1ccc(S(=O)(=O)Nc2cc(CN3CCN(CCC(C)C)CC3)ccc2C)cc1.O=C(O)C(F)(F)F.O=C(O)C(F)(F)F,4.68,313,7.74,,6.28,
Cc1ccc2nc(C)c(-c3ccn(Cc4ccccc4)n3)n2c1,5,120,5.54,,5.16,
Cc1nn(Cc2ccccc2)c(Cl)c1C(=O)NC1CCCCCC1,5.2,28,7.04,,6.75,
O=C(/C=C/c1ccccc1)N1CCN(Cc2cccc(OCc3ccccc3)c2)CC1,8.22,61,7.54,,7.21,
O=C(Nc1ccccc1-c1nc(C2CCC2)cs1)OCC1CCNCC1.O=C(O)C(F)(F)F,8.71,115,8.15,,4.41,
CCc1nc2ccccc2n1CC(O)COc1cc(C)ccc1Cl (stereo unspecified),8.81,1,5.63,,5.35,
CC(=O)NCCn1c(Sc2ccnc(N3CCN(c4ccncc4)CC3)n2)nnc1-c1ccccc1,8.91,135,1.82,,1.06,
Cc1nc2ccccn2c1C(=O)NCc1cccs1,9.02,365,2.93,,2.92,
c1ccc(-c2nc(NC3CCCCC3)cc(C3CC3)n2)nc1,7.08,302,6.74,,6.09,
c1ccc(-c2csc(Nc3nc4cc5c(cc4s3)OCO5)n2)nc1,2.7,1,5.06,,5.07,
COc1ccc2sc(Nc3nc(-c4ccccn4)cs3)nc2c1,8.2,22,5.34,,5.35,
Fc1ccc2nc(Nc3nc(-c4ccccn4)cs3)sc2c1,2.3,28.5,5.54,,5.53,
